Where two headings read alike, the source gives them in different places.
Tests used:
KDM4C = molecular target: T1, KDM4C (Homo sapiens, UniProt Q9H3R0); assay: KDM4C Assay (SAMDI mass spectrometry demethylase assay); assay type: biochemical; settings: N-terminal GST-tagged KDM4C 2-372, read-out: 4C IC50
T1 construct: N-terminal GST-tagged KDM4C^2-372 was purchased from BPS Biosciences; GST (N); purchased BPS Biosciences
T1 sequence (Q9H3R0 2-372): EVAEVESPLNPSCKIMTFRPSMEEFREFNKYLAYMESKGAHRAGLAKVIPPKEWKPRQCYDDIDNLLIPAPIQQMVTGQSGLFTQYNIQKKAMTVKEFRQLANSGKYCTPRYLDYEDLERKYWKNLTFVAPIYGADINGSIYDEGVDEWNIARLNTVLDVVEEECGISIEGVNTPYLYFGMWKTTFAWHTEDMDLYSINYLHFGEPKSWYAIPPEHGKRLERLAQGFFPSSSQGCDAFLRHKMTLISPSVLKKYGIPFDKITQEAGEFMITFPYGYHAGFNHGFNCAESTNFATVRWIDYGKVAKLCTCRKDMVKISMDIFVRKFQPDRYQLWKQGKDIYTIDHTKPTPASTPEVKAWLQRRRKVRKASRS
How it was run: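 GST-tagged KDM4C 2-372 (5 nM) preincubated 30 min with compound, then H3K9me3 biotinylated peptide (500 nM) and 2-oxoglutarate (15 μM) added in HEPES pH 8.0 with ascorbate, Fe(II), TCEP; 150 min at 25 °C, formic-acid quench. Conversion by SAMDI mass spectrometry from substrate/product peak AUC; IC50 from dose-response.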

KDM4A = molecular target: T2, KDM4A (Homo sapiens, UniProt O75164); assay: KDM4A Assay (SAMDI mass spectrometry demethylase assay); assay type: biochemical; settings: N-terminal His-tagged KDM4A 1-350, read-out: 4A IC50
T2 construct: N-terminal His-tagged KDM4A^1-350 was purchased from BPS Biosciences; His (N); purchased BPS Biosciences
T2 sequence (O75164 1-350): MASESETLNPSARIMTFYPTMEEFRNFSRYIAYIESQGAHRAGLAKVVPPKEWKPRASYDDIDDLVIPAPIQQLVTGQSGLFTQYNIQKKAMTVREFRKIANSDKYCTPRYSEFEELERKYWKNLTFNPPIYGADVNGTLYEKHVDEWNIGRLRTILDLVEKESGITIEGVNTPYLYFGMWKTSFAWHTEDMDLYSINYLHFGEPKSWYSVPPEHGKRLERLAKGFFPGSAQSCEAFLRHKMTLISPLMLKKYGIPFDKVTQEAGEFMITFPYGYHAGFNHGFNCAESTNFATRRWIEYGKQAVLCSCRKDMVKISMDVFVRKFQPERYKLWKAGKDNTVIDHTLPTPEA
How it was run: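 His-tagged KDM4A 1-350 (5 nM final) was preincubated 30 min with compound (10 μM final for screening) in 50 mM HEPES pH 8.0 with ascorbate, 10 μM Fe(II) and TCEP. Biotinylated Kme2 peptide (600 nM) and 2-oxoglutarate (5 μM) reacted 120 min at 25°C before a formic acid stop. SAMDI-MS % conversion from substrate and product peak areas; IC50 from dose-response.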

| Compound | IC50 (KDM4C; class symbols) [nM] | IC50 (KDM4A; class symbols) [nM] | IC50 (KDM4A; numeric value) [nM] | IC50 (KDM4C; numeric bound) [nM] |
| --- | --- | --- | --- | --- |
| O=C(O)c1ccncc1Nc1cc(-c2cccc(Cl)c2)n(C2CCC3(CC2)OCCO3)n1 [Compound 86, 3-((5-(3-chlorophenyl)-1-(1,4-dioxaspiro[4.5]decan-8-yl)-1H-pyrazol-3-yl)amino)isonicotinic acid] | 1000 to 10000 | 100 to 1000 | – | – |
| Cc1nn(C2CCN(C3CN(C)C3)CC2)cc1Nc1cnccc1C(=O)O [Compound 91, 3-(3-methyl-1-(1-(1-methylazetidin-3-yl)piperidin-4-yl)-1H-pyrazol-4-ylamino)isonicotinic acid] | 1000 to 10000 | 100 to 1000 | – | – |
| NC1CCC(n2nc(-c3cccc(Cl)c3)cc2Nc2cnccc2C(=O)O)CC1 (stereo not shown) [Compound 85, 3-((1-(4-aminocyclohexyl)-3-(3-chlorophenyl)-1H-pyrazol-5-yl)amino)isonicotinic acid] | 1000 to 10000 | 1000 to 10000 | – | – |
| Cc1nn(C2CCN(CC3CC3)CC2)cc1Nc1cnccc1C(=O)O [Compound 89, 3-(1-(1-(cyclopropylmethyl)piperidin-4-yl)-3-methyl-1H-pyrazol-4-ylamino)isonicotinic acid] | 100 to 1000 | 1 to 100 | – | – |
| Cc1nn(C2CCN(C3CCC3)CC2)cc1Nc1cnccc1C(=O)O [Compound 94, 3-(1-(1-cyclobutylpiperidin-4-yl)-3-methyl-1H-pyrazol-4-ylamino)isonicotinic acid] | 100 to 1000 | 1 to 100 | – | – |
| Cn1ncc(-c2cccnc2)c1Nc1cnccc1C(=O)O [Compound 4] | 1000 to 10000 | 1000 to 10000 | – | – |
| Cc1c(Nc2cnccc2C(=O)O)cnn1C1CCN(CC2CC2)CC1 [Compound 90, 3-(1-(1-(cyclopropylmethyl)piperidin-4-yl)-5-methyl-1H-pyrazol-4-ylamino) isonicotinic acid] | 100 to 1000 | 100 to 1000 | – | – |
| COC(=O)c1ccncc1Nc1cnn(C2CCN(C3CCC3)CC2)c1C [Compound 95, methyl 3-((1-(1-cyclobutylpiperidin-4-yl)-5-methyl-1H-pyrazol-4-yl)amino)isonicotinate] | 10000 to 100000 | 10000 to 100000 | – | – |
| Cn1nc(Nc2cnccc2C(=O)O)cc1-c1ccccc1 [Compound 5] | 100 to 1000 | 100 to 1000 | – | – |
| CN1CCC(n2ncc(Nc3cnccc3C(=O)O)c2-c2ccccc2)CC1 [Compound 126, 3-(1-(1-methylpiperidin-4-yl)-5-phenyl-1H-pyrazol-4-ylamino) isonicotinic acid] | 1000 to 10000 | – | 1490 | – |
| O=C(O)c1ccncc1Nc1nn(-c2ccccc2)cc1-c1ccncc1 [Compound 88, 3-((1-phenyl-4-(pyridin-4-yl)-1H-pyrazol-3-yl)amino) isonicotinic acid] | 1 to 100 | 100 to 1000 | – | – |
| COC(=O)c1ccncc1Nc1cn(C2CCN(C3CCC3)CC2)nc1C [Compound 93, methyl 3-((1-(1-cyclobutylpiperidin-4-yl)-3-methyl-1H-pyrazol-4-yl)amino)isonicotinate] | – | 10000 to 100000 | – | > 100000 |
| CCc1c(Nc2cnccc2C(=O)O)cnn1-c1ccccc1 [Compound 81, 3-((5-ethyl-1-phenyl-1H-pyrazol-4-yl)amino)isonicotinic acid] | 1 to 100 | 1 to 100 | – | – |
| Cc1nn([C@H]2CC[C@@H](N)CC2)cc1Nc1cnccc1C(=O)O [Compound 80, 3-((1-((cis)-4-aminocyclohexyl)-3-methyl-1H-pyrazol-4-yl)amino)isonicotinic acid] | 100 to 1000 | 100 to 1000 | – | – |
| Cc1c(Nc2cnccc2C(=O)O)cnn1C1CCN(C2CN(C)C2)CC1 [Compound 92, 3-(5-methyl-1-(1-(1-methylazetidin-3-yl)piperidin-4-yl)-1H-pyrazol-4-ylamino)isonicotinic acid] | 100 to 1000 | 100 to 1000 | – | – |
| Cc1ccc(-n2cc(Nc3cnccc3C(=O)O)c(C)n2)cc1 [Compound 82] | 1 to 100 | 1 to 100 | – | – |
| NC1CCC(n2nc(Nc3cnccc3C(=O)O)cc2-c2cccc(Cl)c2)CC1 (stereo not shown) [Compound 87, 3-((1-(4-aminocyclohexyl)-5-(3-chlorophenyl)-1H-pyrazol-3-yl)amino)isonicotinic acid] | 10000 to 100000 | 10000 to 100000 | – | – |
